The values that follow come from PubChem BioAssay (NCI).

SMILES strings stand for the structures.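 Values below derive from 48-hour exposures of cells grown in 96-well plates, with endpoints linearly interpolated between the two concentrations bracketing the appropriate inhibition level. TGI marks complete inhibition of growth.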

The subject of one experiment is NCI-H460 lung. Kind of experiment: NCI tumour cell line growth inhibition, 48 h.
`COC1/C=C/C(C)C(C(C)C(OC)C(C)CCC(=O)C(C)C(C/C=C/N(C)C=O)OC)OC(=O)C=CC2OC2(C)CC(OC)C(OC)C2=CC(=O)O[C@@H](C(C)C(OC)CC(OC)/C=C/C(C)C(O)C1)[C@H]2O` (stereo partly specified): the TGI is over 0.351 µM.
Same read-out and setting: as for `CC(=O)Nc1ccc(C(O)/C(=N/N)c2nc3ccc(Cl)cc3[nH]c2=O)cc1` (stereo unspecified), the figure is over 100 µM; as for `CC1CC(C)C(C#N)N(C)c2ccccc21` (stereo unspecified), over 100 µM; as for `CC(=O)C1C(=O)C(=O)N(c2cccc([N+](=O)[O-])c2)C1=O` (stereo unspecified), over 100 µM.
Still for that read-out and setting: the value for `CCN(CC)CC1CCCCN1CC(=O)N1c2ccccc2C(=O)Nc2cccnc21` (stereo unspecified) was over 100 µM.
The same measure, in the same setting: as for `O=C(NC1=C(Cl)C(=O)c2ccccc2C1=O)c1ccc(F)cc1`, the figure is 10.6 µM.
Take `CCC(CCCN)Nc1cc(OC)cc2c(C)ccnc12` (stereo unspecified): the TGI stood at 32.3 µM.

A further experiment has as its system SF-295 CNS. Briefly: NCI tumour cell line growth inhibition, 48 h.
Take `CCOC(=O)C1C(c2ccc3c(c2)OCO3)c2c([nH][nH]c2=O)CC1(C)O` (stereo unspecified): the TGI is over 100 µM.
On the same count and under the same terms, as for `NC(N)=NCC[C@H](NC(=O)OCCCCCn1ccc(=O)[nH]c1=O)C(=O)O`, the figure is over 100 µM; as for `O=C(c1ccccc1)c1ccc2nc(-c3c(Cl)c(Cl)c(Cl)c(Cl)c3C(=O)N/N=C/c3ccc(Cl)cc3)[nH]c2c1`, over 100 µM.
Same read-out and setting: as for `CSc1nc2c(c(=O)[nH]1)N=C(c1ccc([N+](=O)[O-])cc1)CC(c1ccccc1)N2` (stereo unspecified), the figure is over 100 µM; as for `COC1/C=C/C(C)C(C(C)C(OC)C(C)CCC(=O)C(C)C(C/C=C/N(C)C=O)OC)OC(=O)C=CC2OC2(C)CC(OC)C(OC)C2=CC(=O)O[C@@H](C(C)C(OC)CC(OC)/C=C/C(C)C(O)C1)[C@H]2O` (stereo partly specified), 0.0236 µM.
The same measure, in the same setting: the value for `CC(=O)Nc1ccc(C(O)/C(=N/N)c2nc3ccc(Cl)cc3[nH]c2=O)cc1` (stereo unspecified) was over 100 µM.
`CC1CC(C)C(C#N)N(C)c2ccccc21` (stereo unspecified) showed a TGI of over 100 µM.
Still for that read-out and setting: the value for `NC(N)=NCCCC(NC(=O)c1cccc2c(=O)c3ccccc3[nH]c12)C(=O)O` (stereo unspecified) was over 100 µM; that for `O=C(NNCC(O)COc1ccccc1)c1ccccc1` (stereo unspecified) was over 100 µM; that for `COC(=O)[C@@H]1CC(C(C[N+](=O)[O-])c2ccc(O[Si](C)(C)C(C)(C)C)cc2)C(=O)N1C(=O)OC(C)(C)C` (stereo partly specified) was over 100 µM.
The same measure, in the same setting: as for `CC(=O)C1C(=O)C(=O)N(c2cccc([N+](=O)[O-])c2)C1=O` (stereo unspecified), the figure is over 100 µM; as for `CCN(CC)CC1CCCCN1CC(=O)N1c2ccccc2C(=O)Nc2cccnc21` (stereo unspecified), over 100 µM; as for `O=C(NC1=C(Cl)C(=O)c2ccccc2C1=O)c1ccc(F)cc1`, 13.8 µM.
For `CCC(CCCN)Nc1cc(OC)cc2c(C)ccnc12` (stereo unspecified), the TGI came out at 32.9 µM.

The test system of the next experiment is OVCAR-8 ovarian. Kind of experiment: NCI tumour cell line growth inhibition, 48 h.
For the compound `CCOC(=O)C1C(c2ccc3c(c2)OCO3)c2c([nH][nH]c2=O)CC1(C)O` (stereo unspecified), the TGI was over 100 µM.
On the same count and under the same terms, as for `NC(N)=NCC[C@H](NC(=O)OCCCCCn1ccc(=O)[nH]c1=O)C(=O)O`, the figure is over 100 µM; as for `O=C(c1ccccc1)c1ccc2nc(-c3c(Cl)c(Cl)c(Cl)c(Cl)c3C(=O)N/N=C/c3ccc(Cl)cc3)[nH]c2c1`, over 100 µM.
On the same count and under the same terms, as for `CSc1nc2c(c(=O)[nH]1)N=C(c1ccc([N+](=O)[O-])cc1)CC(c1ccccc1)N2` (stereo unspecified), the figure is over 100 µM; as for `CC(=O)Nc1ccc(C(O)/C(=N/N)c2nc3ccc(Cl)cc3[nH]c2=O)cc1` (stereo unspecified), over 100 µM.
Same read-out and setting: as for `CC1CC(C)C(C#N)N(C)c2ccccc21` (stereo unspecified), the figure is over 100 µM.
The compound `NC(N)=NCCCC(NC(=O)c1cccc2c(=O)c3ccccc3[nH]c12)C(=O)O` (stereo unspecified) registered a TGI of over 100 µM.
Still for that read-out and setting: the value for `O=C(NNCC(O)COc1ccccc1)c1ccccc1` (stereo unspecified) was over 100 µM; that for `COC(=O)[C@@H]1CC(C(C[N+](=O)[O-])c2ccc(O[Si](C)(C)C(C)(C)C)cc2)C(=O)N1C(=O)OC(C)(C)C` (stereo partly specified) was over 100 µM.
Regarding `CC(=O)C1C(=O)C(=O)N(c2cccc([N+](=O)[O-])c2)C1=O` (stereo unspecified), the TGI was over 100 µM.
Same read-out and setting: the value for `CCN(CC)CC1CCCCN1CC(=O)N1c2ccccc2C(=O)Nc2cccnc21` (stereo unspecified) was over 100 µM; that for `O=C(NC1=C(Cl)C(=O)c2ccccc2C1=O)c1ccc(F)cc1` was 19.3 µM; that for `CCC(CCCN)Nc1cc(OC)cc2c(C)ccnc12` (stereo unspecified) was 42.2 µM.

A further experiment concerns MDA-MB-435. Briefly: NCI tumour cell line growth inhibition, 48 h.
For `CCOC(=O)C1C(c2ccc3c(c2)OCO3)c2c([nH][nH]c2=O)CC1(C)O` (stereo unspecified), the TGI is over 100 µM.
For the compound `NC(N)=NCC[C@H](NC(=O)OCCCCCn1ccc(=O)[nH]c1=O)C(=O)O`, the TGI was over 100 µM.
For `O=C(c1ccccc1)c1ccc2nc(-c3c(Cl)c(Cl)c(Cl)c(Cl)c3C(=O)N/N=C/c3ccc(Cl)cc3)[nH]c2c1`, the TGI was over 100 µM.
Still for that read-out and setting: the value for `CSc1nc2c(c(=O)[nH]1)N=C(c1ccc([N+](=O)[O-])cc1)CC(c1ccccc1)N2` (stereo unspecified) was over 100 µM; that for `COC1/C=C/C(C)C(C(C)C(OC)C(C)CCC(=O)C(C)C(C/C=C/N(C)C=O)OC)OC(=O)C=CC2OC2(C)CC(OC)C(OC)C2=CC(=O)O[C@@H](C(C)C(OC)CC(OC)/C=C/C(C)C(O)C1)[C@H]2O` (stereo partly specified) was over 1.24 µM; that for `CC(=O)Nc1ccc(C(O)/C(=N/N)c2nc3ccc(Cl)cc3[nH]c2=O)cc1` (stereo unspecified) was over 100 µM.
The same measure, in the same setting: as for `CC1CC(C)C(C#N)N(C)c2ccccc21` (stereo unspecified), the figure is over 100 µM; as for `NC(N)=NCCCC(NC(=O)c1cccc2c(=O)c3ccccc3[nH]c12)C(=O)O` (stereo unspecified), over 100 µM.
The same measure, in the same setting: as for `O=C(NNCC(O)COc1ccccc1)c1ccccc1` (stereo unspecified), the figure is over 100 µM; as for `COC(=O)[C@@H]1CC(C(C[N+](=O)[O-])c2ccc(O[Si](C)(C)C(C)(C)C)cc2)C(=O)N1C(=O)OC(C)(C)C` (stereo partly specified), over 100 µM; as for `CC(=O)C1C(=O)C(=O)N(c2cccc([N+](=O)[O-])c2)C1=O` (stereo unspecified), over 100 µM.
With `CCN(CC)CC1CCCCN1CC(=O)N1c2ccccc2C(=O)Nc2cccnc21` (stereo unspecified), the TGI was over 100 µM.
On the same count and under the same terms, as for `O=C(NC1=C(Cl)C(=O)c2ccccc2C1=O)c1ccc(F)cc1`, the figure is 14.2 µM; as for `CCC(CCCN)Nc1cc(OC)cc2c(C)ccnc12` (stereo unspecified), 28 µM.

The next experiment deals with U251 CNS. Briefly: NCI tumour cell line growth inhibition, 48 h.
`CCOC(=O)C1C(c2ccc3c(c2)OCO3)c2c([nH][nH]c2=O)CC1(C)O` (stereo unspecified) came in with a TGI of over 100 µM.
Regarding `NC(N)=NCC[C@H](NC(=O)OCCCCCn1ccc(=O)[nH]c1=O)C(=O)O`, the TGI is over 100 µM.
The same measure, in the same setting: the value for `O=C(c1ccccc1)c1ccc2nc(-c3c(Cl)c(Cl)c(Cl)c(Cl)c3C(=O)N/N=C/c3ccc(Cl)cc3)[nH]c2c1` was over 100 µM.
